Assay results taken from patent US6835536B2, “Antimicrobial cationic peptides and formulations thereof” (Micrologix Biotech Inc., priority 2001, dated 2004).

system: S. maltophilia; assay: Agarose dilution MIC assay; assay type: cell-based; settings: S. maltophilia strain SMA002
Description: (§1) The agarose dilution assay measures antimicrobial activity of peptides and peptide analogues. The activity is expressed as the minimum inhibitory concentration (MIC) in μg/ml of the peptide.
(§2) In order to mimic in vivo conditions, calcium and magnesium supplemented Mueller Hinton broth is used in combination with a low EEO agarose as the bacterial growth medium. Agarose, rather than agar, is used as the charged groups in agar prevent peptide diffusion through the medium. The medium is autoclaved, then cooled to 50-55° C. in a water bath before aseptic addition of a peptide solution. The same volume of different concentrations of peptide solution is added to the cooled, molten agarose that is then poured into a petri plate to a depth of 3-4 mm and allowed to solidify.
(§3) The bacterial inoculum is adjusted to a 0.5 McFarland turbidity standard (PML Microbiological) and then diluted 1:10 before application on to the agarose plate. The final inoculum applied to the agarose is approximately 10^4 CFU in a 5-8 mm diameter spot. The agarose plates are incubated at 35-37° C. for 16 to 20 hours.

Substance | Minimum Inhibitory Concentration [µg/mL]
R L G G G W V W W V W R R [Peptide 11F50CN] | 8
R L V V W W V V R R [Peptide 11F63CN] | 0.5
I L K W V W W V W R R K [Peptide 11B36CN] | 8
r L W V W W V W R R [Peptide 11F67CN] | 2

system: E. cloacae; assay: Agarose dilution MIC assay; assay type: cell-based; settings: E. cloacae strain ECL007
Description: as §1, §2, §3

Substance | Minimum Inhibitory Concentration [µg/mL]
R L G G G W V W W V W R R [Peptide 11F50CN] | >128
R L V V W W V V R R [Peptide 11F63CN] | 16
I L K W V W W V W R R K [Peptide 11B36CN] | 64
r L W V W W V W R R [Peptide 11F67CN] | 32

system: E. coli; assay: Agarose dilution MIC assay; assay type: cell-based; settings: E. coli strain ECO005
Description: as §1, §2, §3

Substance | Minimum Inhibitory Concentration [µg/mL]
R L G G G W V W W V W R R [Peptide 11F50CN] | 4
R L V V W W V V R R [Peptide 11F63CN] | 2
I L K W V W W V W R R K [Peptide 11B36CN] | 8
r L W V W W V W R R [Peptide 11F67CN] | 2

system: S. mitis; assay: Agarose dilution MIC assay; assay type: cell-based; settings: S. mitis strain SMT014
Description: as §1, §2, §3

Substance | Minimum Inhibitory Concentration [µg/mL]
R L G G G W V W W V W R R [Peptide 11F50CN] | 1
R L V V W W V V R R [Peptide 11F63CN] | 2
I L K W V W W V W R R K [Peptide 11B36CN] | 2
r L W V W W V W R R [Peptide 11F67CN] | 1

system: C. albicans; assay: Agarose dilution MIC assay; assay type: cell-based; settings: C. albicans strain CAL002; agarose dilution
Description: as §1, §2, §3

Substance | Minimum Inhibitory Concentration [µg/mL]
R L G G G W V W W V W R R [Peptide 11F50CN] | 32
R L V V W W V V R R [Peptide 11F63CN] | 16
I L K W V W W V W R R K [Peptide 11B36CN] | 8
r L W V W W V W R R [Peptide 11F67CN] | 32

system: P. aeruginosa; assay: Agarose dilution MIC assay; assay type: cell-based; settings: P. aeruginosa strain PAE004; agarose dilution
Description: as §1, §2, §3

Substance | Minimum Inhibitory Concentration [µg/mL]
R L G G G W V W W V W R R [Peptide 11F50CN] | >128
R L V V W W V V R R [Peptide 11F63CN] | 8
I L K W V W W V W R R K [Peptide 11B36CN] | 32
r L W V W W V W R R [Peptide 11F67CN] | 16

system: S. aureus; assay: Agarose dilution MIC assay; assay type: cell-based; settings: S. aureus strain SAU014; agarose dilution
Description: as §1, §2, §3

Substance | Minimum Inhibitory Concentration [µg/mL]
R L G G G W V W W V W R R [Peptide 11F50CN] | 2
R L V V W W V V R R [Peptide 11F63CN] | 2
I L K W V W W V W R R K [Peptide 11B36CN] | 2
r L W V W W V W R R [Peptide 11F67CN] | 2

system: S. marcescens; assay: Agarose dilution MIC assay; assay type: cell-based; settings: S. marcescens strain SMS003
Description: as §1, §2, §3

Substance | Minimum Inhibitory Concentration [µg/mL]
R L G G G W V W W V W R R [Peptide 11F50CN] | >128
R L V V W W V V R R [Peptide 11F63CN] | >128
I L K W V W W V W R R K [Peptide 11B36CN] | >128
r L W V W W V W R R [Peptide 11F67CN] | >128

system: S. pyogenes; assay: Agarose dilution MIC assay; assay type: cell-based; settings: S. pyogenes strain SPY001
Description: as §1, §2, §3

Substance | Minimum Inhibitory Concentration [µg/mL]
R L G G G W V W W V W R R [Peptide 11F50CN] | 1
R L V V W W V V R R [Peptide 11F63CN] | 1
I L K W V W W V W R R K [Peptide 11B36CN] | 2
r L W V W W V W R R [Peptide 11F67CN] | 1

system: C. neoformans; assay: Agarose dilution MIC assay; assay type: cell-based; settings: C. neoformans strain CNE001
Description: as §1, §2, §3

Substance | Minimum Inhibitory Concentration [µg/mL]
R L G G G W V W W V W R R [Peptide 11F50CN] | 16
R L V V W W V V R R [Peptide 11F63CN] | 8
I L K W V W W V W R R K [Peptide 11B36CN] | 16
r L W V W W V W R R [Peptide 11F67CN] | 8

system: S. pneumoniae; assay: Agarose dilution MIC assay; assay type: cell-based; settings: S. pneumoniae strain SPN002
Description: as §1, §2, §3

Substance | Minimum Inhibitory Concentration [µg/mL]
R L G G G W V W W V W R R [Peptide 11F50CN] | 2
R L V V W W V V R R [Peptide 11F63CN] | 4
I L K W V W W V W R R K [Peptide 11B36CN] | 4
r L W V W W V W R R [Peptide 11F67CN] | 2

system: A. calcoaceticus; assay: Agarose dilution MIC assay; assay type: cell-based; settings: A. calcoaceticus strain ACA002
Description: as §1, §2, §3

Substance | Minimum Inhibitory Concentration [µg/mL]
R L G G G W V W W V W R R [Peptide 11F50CN] | 2
R L V V W W V V R R [Peptide 11F63CN] | 2
I L K W V W W V W R R K [Peptide 11B36CN] | 2
r L W V W W V W R R [Peptide 11F67CN] | 2

system: K. pneumoniae; assay: Agarose dilution MIC assay; assay type: cell-based; settings: K. pnenmoniae strain KPN001
Description: as §1, §2, §3

Substance | Minimum Inhibitory Concentration [µg/mL]
R L G G G W V W W V W R R [Peptide 11F50CN] | 16
R L V V W W V V R R [Peptide 11F63CN] | 4
I L K W V W W V W R R K [Peptide 11B36CN] | 8
r L W V W W V W R R [Peptide 11F67CN] | 2

system: S. epidermidis; assay: Agarose dilution MIC assay; assay type: cell-based; settings: S. epidermidis strain SEP010; agarose dilution
Description: as §1, §2, §3

Substance | Minimum Inhibitory Concentration [µg/mL]
R L G G G W V W W V W R R [Peptide 11F50CN] | 1
R L V V W W V V R R [Peptide 11F63CN] | 1
I L K W V W W V W R R K [Peptide 11B36CN] | 2
r L W V W W V W R R [Peptide 11F67CN] | 1

system: E. faecalis; assay: Agarose dilution MIC assay; assay type: cell-based; settings: E. faecalis strain EFS001
Description: as §1, §2, §3

Substance | Minimum Inhibitory Concentration [µg/mL]
R L G G G W V W W V W R R [Peptide 11F50CN] | 16
R L V V W W V V R R [Peptide 11F63CN] | 4
I L K W V W W V W R R K [Peptide 11B36CN] | 16
r L W V W W V W R R [Peptide 11F67CN] | 4

system: C. jeikeium; assay: Agarose dilution MIC assay; assay type: cell-based; settings: C. jeikeium strain CJK005
Description: as §1, §2, §3

Substance | Minimum Inhibitory Concentration [µg/mL]
R L G G G W V W W V W R R [Peptide 11F50CN] | 0.5
R L V V W W V V R R [Peptide 11F63CN] | 1
I L K W V W W V W R R K [Peptide 11B36CN] | 1
r L W V W W V W R R [Peptide 11F67CN] | 0.5
